Reference: BindingDB's records for patent USRE47740 (Syntrix Biosystems Inc., 2019)

Target: T1, C-X-C chemokine receptor type 2 (Homo sapiens, UniProt P25025)
T1 sequence (P25025 whole entry): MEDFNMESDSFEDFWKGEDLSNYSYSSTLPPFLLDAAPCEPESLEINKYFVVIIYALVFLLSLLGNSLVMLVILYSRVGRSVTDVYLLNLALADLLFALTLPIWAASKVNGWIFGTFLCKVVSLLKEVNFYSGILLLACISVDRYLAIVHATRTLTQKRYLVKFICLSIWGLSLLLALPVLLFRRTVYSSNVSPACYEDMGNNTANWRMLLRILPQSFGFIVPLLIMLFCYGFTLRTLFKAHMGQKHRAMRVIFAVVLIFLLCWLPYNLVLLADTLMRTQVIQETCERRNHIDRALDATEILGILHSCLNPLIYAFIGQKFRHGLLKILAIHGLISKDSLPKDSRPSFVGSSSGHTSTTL
Test: In Vitro Inhibition of Intracellular Calcium Release
Protocol: Briefly, human neutrophils were suspended in HBSS− (without Ca2+ and Mg2+) containing 10 mM HEPES and FLIPR Calcium 3 dye (3.1×10^7 cells in total volume 1.7 mL). Cells were aliquoted (200 μL of the cell suspension per tube, 8 tubes total) and 2 μL of compound 9 (with appropriate dilutions) were added to each of 6 tubes. The tested concentrations of compound 9 were 156 nM, 312 nM, 625 nM, 1250 nM, 2500 nM and 5000 nM. As controls, 2 μL of DMSO (1% final concentration) were added to 2 other tubes. Cells were incubated for 30 min at 37° C. […] The cell suspension was aliquoted into a 96-well Reading Plate (Corning) in a volume of 90 μL (10^5 cells/well). […] After 15 sec of reading the basal level of fluorescence by FlexStation II, 10 μL of GROα or HBSS− were automatically transferred from the Compound Plate into the Reading Plate (final concentration of GROα was 25 nM). Changes in fluorescence were monitored (λex=485 nm, λem=525 nm) every 5 s for 240 to 500 s at room temperature.The maximum change in fluorescence, expressed in arbitrary units over baseline (Max-Min), was used to determine the GROα response. The effect of each compound on the GROα response was normalized and expressed as a percent of the DMSO control, which was designated as 100% response. […]

- IC50: 1.5 µM
Structure (SMILES): CC1(C)OB(c2ccccc2CNc2ccc(C(=O)Nc3ccc(F)cc3)cn2)OC1(C)C [USRE47740, Compound 7]
